{"source": "ChEMBL document CHEMBL1201862", "about": "“PubChem BioAssay data set” (2004)", "test_in_all_cases": "inhibition of tumour cell growth, NCI panel, 48 h", "key": {"NCI-H522": {"test_system": "NCI-H522"}, "MDA-N": {"test_system": "MDA-N"}, "A549": {"test_system": "A549"}, "MDA-MB-435": {"test_system": "MDA-MB-435"}, "T47D": {"test_system": "T47D"}, "K562": {"test_system": "K562"}, "A498": {"test_system": "A498"}, "DU-145": {"test_system": "DU-145"}, "SN12C": {"test_system": "SN12C"}, "NCI-H226": {"test_system": "NCI-H226"}, "Hs-578T": {"test_system": "Hs-578T"}, "SK-MEL-5": {"test_system": "SK-MEL-5"}, "U-251": {"test_system": "U-251"}, "HL-60": {"test_system": "HL-60"}, "Malme-3M": {"test_system": "Malme-3M"}, "NCI-H23": {"test_system": "NCI-H23"}, "KM12": {"test_system": "KM12"}, "TK-10": {"test_system": "TK-10"}, "OVCAR-3": {"test_system": "OVCAR-3"}}, "note": "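Values below derive from 48-hour exposures of cells grown in 96-well plates, with endpoints linearly interpolated between the two concentrations bracketing the appropriate inhibition level. At the GI50, growth is halved.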 Calls of active or inactive are those of the source. Cut-off read from the data, not from the text of the source: active = GI50 up to about 1.1 µM and inactive = higher."}
{"molecule": "C/C(CC(O)(C(F)(F)F)C(F)(F)F)=N\\O", "values": [{"measurement": "GI50", "setting": "NCI-H522", "result": "> 10 µM (inactive)"}, {"measurement": "GI50", "setting": "MDA-N", "result": "> 10 µM (inactive)"}, {"measurement": "GI50", "setting": "A549", "result": "> 10 µM (inactive)"}, {"measurement": "GI50", "setting": "MDA-MB-435", "result": "> 10 µM (inactive)"}, {"measurement": "GI50", "setting": "T47D", "result": "> 10 µM (inactive)"}, {"measurement": "GI50", "setting": "K562", "result": "> 10 µM (inactive)"}, {"measurement": "GI50", "setting": "A498", "result": "> 10 µM (inactive)"}, {"measurement": "GI50", "setting": "DU-145", "result": "> 10 µM (inactive)"}, {"measurement": "GI50", "setting": "SN12C", "result": "> 10 µM (inactive)"}, {"measurement": "GI50", "setting": "NCI-H226", "result": "> 10 µM (inactive)"}, {"measurement": "GI50", "setting": "Hs-578T", "result": "> 10 µM (inactive)"}, {"measurement": "GI50", "setting": "SK-MEL-5", "result": "> 10 µM (inactive)"}, {"measurement": "GI50", "setting": "U-251", "result": "> 10 µM (inactive)"}, {"measurement": "GI50", "setting": "HL-60", "result": "> 10 µM (inactive)"}, {"measurement": "GI50", "setting": "Malme-3M", "result": "> 10 µM (inactive)"}, {"measurement": "GI50", "setting": "NCI-H23", "result": "> 10 µM (inactive)"}, {"measurement": "GI50", "setting": "KM12", "result": "> 10 µM (inactive)"}, {"measurement": "GI50", "setting": "TK-10", "result": "> 10 µM (inactive)"}, {"measurement": "GI50", "setting": "OVCAR-3", "result": "> 10 µM (inactive)"}]}
{"molecule": "CC(=O)c1ccc2c3c1[C@H]1O[C@H]1c1cccc(c1-3)[C@@H]1O[C@H]21", "values": [{"measurement": "GI50", "setting": "NCI-H522", "result": "0.286 µM (active)"}, {"measurement": "GI50", "setting": "MDA-N", "result": "2.32 µM (inactive)"}, {"measurement": "GI50", "setting": "A549", "result": "2.92 µM (inactive)"}, {"measurement": "GI50", "setting": "MDA-MB-435", "result": "1.79 µM (inactive)"}, {"measurement": "GI50", "setting": "T47D", "result": "2.15 µM (inactive)"}, {"measurement": "GI50", "setting": "K562", "result": "0.444 µM (active)"}, {"measurement": "GI50", "setting": "A498", "result": "2.37 µM (inactive)"}, {"measurement": "GI50", "setting": "DU-145", "result": "2.37 µM (inactive)"}, {"measurement": "GI50", "setting": "SN12C", "result": "1.85 µM (inactive)"}, {"measurement": "GI50", "setting": "NCI-H226", "result": "29.4 µM (inactive)"}, {"measurement": "GI50", "setting": "Hs-578T", "result": "1.53 µM (inactive)"}, {"measurement": "GI50", "setting": "SK-MEL-5", "result": "2.17 µM (inactive)"}, {"measurement": "GI50", "setting": "U-251", "result": "1.93 µM (inactive)"}, {"measurement": "GI50", "setting": "HL-60", "result": "2.58 µM (inactive)"}, {"measurement": "GI50", "setting": "Malme-3M", "result": "1.37 µM (inactive)"}, {"measurement": "GI50", "setting": "NCI-H23", "result": "1.49 µM (inactive)"}, {"measurement": "GI50", "setting": "KM12", "result": "1.87 µM (inactive)"}, {"measurement": "GI50", "setting": "TK-10", "result": "4.21 µM (inactive)"}, {"measurement": "GI50", "setting": "OVCAR-3", "result": "3.27 µM (inactive)"}]}
{"molecule": "COc1cc2c(cc1C)NC(=O)/C2=C/c1c(Cl)[nH]c2cc(C)c(OC)cc12", "values": [{"measurement": "GI50", "setting": "NCI-H522", "result": "5.25 µM (inactive)"}, {"measurement": "GI50", "setting": "MDA-N", "result": "2.84 µM (inactive)"}, {"measurement": "GI50", "setting": "A549", "result": "4.55 µM (inactive)"}, {"measurement": "GI50", "setting": "MDA-MB-435", "result": "2.69 µM (inactive)"}, {"measurement": "GI50", "setting": "T47D", "result": "2.23 µM (inactive)"}, {"measurement": "GI50", "setting": "K562", "result": "4.36 µM (inactive)"}, {"measurement": "GI50", "setting": "A498", "result": "8.73 µM (inactive)"}, {"measurement": "GI50", "setting": "DU-145", "result": "2.36 µM (inactive)"}, {"measurement": "GI50", "setting": "SN12C", "result": "1.86 µM (inactive)"}, {"measurement": "GI50", "setting": "NCI-H226", "result": "17.2 µM (inactive)"}, {"measurement": "GI50", "setting": "Hs-578T", "result": "8.65 µM (inactive)"}, {"measurement": "GI50", "setting": "SK-MEL-5", "result": "2.62 µM (inactive)"}, {"measurement": "GI50", "setting": "U-251", "result": "2.86 µM (inactive)"}, {"measurement": "GI50", "setting": "HL-60", "result": "0.187 µM (active)"}, {"measurement": "GI50", "setting": "Malme-3M", "result": "11.5 µM (inactive)"}, {"measurement": "GI50", "setting": "NCI-H23", "result": "1.91 µM (inactive)"}, {"measurement": "GI50", "setting": "KM12", "result": "4.22 µM (inactive)"}, {"measurement": "GI50", "setting": "TK-10", "result": "7.1 µM (inactive)"}, {"measurement": "GI50", "setting": "OVCAR-3", "result": "1.94 µM (inactive)"}]}
{"molecule": "c1cc(-c2ccc(-c3ccc(C4=NCCCN4)cc3)o2)ccc1C1=NCCCN1", "values": [{"measurement": "GI50", "setting": "NCI-H522", "result": "81.3 µM (inactive)"}, {"measurement": "GI50", "setting": "MDA-N", "result": "32.6 µM (inactive)"}, {"measurement": "GI50", "setting": "A549", "result": "8.2 µM (inactive)"}, {"measurement": "GI50", "setting": "MDA-MB-435", "result": "33.5 µM (inactive)"}, {"measurement": "GI50", "setting": "T47D", "result": "59.7 µM (inactive)"}, {"measurement": "GI50", "setting": "K562", "result": "40.6 µM (inactive)"}, {"measurement": "GI50", "setting": "A498", "result": "2.24 µM (inactive)"}, {"measurement": "GI50", "setting": "DU-145", "result": "89.3 µM (inactive)"}, {"measurement": "GI50", "setting": "SN12C", "result": "4.18 µM (inactive)"}, {"measurement": "GI50", "setting": "NCI-H226", "result": "54 µM (inactive)"}, {"measurement": "GI50", "setting": "Hs-578T", "result": "98.6 µM (inactive)"}, {"measurement": "GI50", "setting": "SK-MEL-5", "result": "22.8 µM (inactive)"}, {"measurement": "GI50", "setting": "U-251", "result": "33.3 µM (inactive)"}, {"measurement": "GI50", "setting": "HL-60", "result": "> 100 µM (inactive)"}, {"measurement": "GI50", "setting": "Malme-3M", "result": "49.4 µM (inactive)"}, {"measurement": "GI50", "setting": "NCI-H23", "result": "46 µM (inactive)"}, {"measurement": "GI50", "setting": "KM12", "result": "43.7 µM (inactive)"}, {"measurement": "GI50", "setting": "TK-10", "result": "50.2 µM (inactive)"}, {"measurement": "GI50", "setting": "OVCAR-3", "result": "> 100 µM (inactive)"}]}
{"molecule": "CCC(NC(C)c1ccccc1)C(O)c1ccc(OCc2ccccc2)c(OCc2ccccc2)c1", "note": "(centres undefined)", "values": [{"measurement": "GI50", "setting": "NCI-H522", "result": "15.7 µM (inactive)"}, {"measurement": "GI50", "setting": "MDA-N", "result": "15.3 µM (inactive)"}, {"measurement": "GI50", "setting": "A549", "result": "16 µM (inactive)"}, {"measurement": "GI50", "setting": "MDA-MB-435", "result": "13.8 µM (inactive)"}, {"measurement": "GI50", "setting": "T47D", "result": "15.1 µM (inactive)"}, {"measurement": "GI50", "setting": "K562", "result": "3.22 µM (inactive)"}, {"measurement": "GI50", "setting": "A498", "result": "24 µM (inactive)"}, {"measurement": "GI50", "setting": "DU-145", "result": "18.2 µM (inactive)"}, {"measurement": "GI50", "setting": "SN12C", "result": "15.1 µM (inactive)"}, {"measurement": "GI50", "setting": "NCI-H226", "result": "18.6 µM (inactive)"}, {"measurement": "GI50", "setting": "Hs-578T", "result": "19 µM (inactive)"}, {"measurement": "GI50", "setting": "SK-MEL-5", "result": "4.45 µM (inactive)"}, {"measurement": "GI50", "setting": "U-251", "result": "13 µM (inactive)"}, {"measurement": "GI50", "setting": "HL-60", "result": "13.8 µM (inactive)"}, {"measurement": "GI50", "setting": "Malme-3M", "result": "14.6 µM (inactive)"}, {"measurement": "GI50", "setting": "NCI-H23", "result": "16.4 µM (inactive)"}, {"measurement": "GI50", "setting": "KM12", "result": "5.81 µM (inactive)"}, {"measurement": "GI50", "setting": "TK-10", "result": "17.8 µM (inactive)"}, {"measurement": "GI50", "setting": "OVCAR-3", "result": "12 µM (inactive)"}]}
{"molecule": "Nc1nc(N)c(-c2cccc(C(F)(F)F)c2)c(Cc2cccc(C(F)(F)F)c2)n1", "values": [{"measurement": "GI50", "setting": "NCI-H522", "result": "4.06 µM (inactive)"}, {"measurement": "GI50", "setting": "MDA-N", "result": "0.689 µM (active)"}, {"measurement": "GI50", "setting": "A549", "result": "0.628 µM (active)"}, {"measurement": "GI50", "setting": "MDA-MB-435", "result": "2.96 µM (inactive)"}, {"measurement": "GI50", "setting": "T47D", "result": "12.8 µM (inactive)"}, {"measurement": "GI50", "setting": "K562", "result": "0.449 µM (active)"}, {"measurement": "GI50", "setting": "A498", "result": "3.43 µM (inactive)"}, {"measurement": "GI50", "setting": "DU-145", "result": "7.71 µM (inactive)"}, {"measurement": "GI50", "setting": "SN12C", "result": "3.54 µM (inactive)"}, {"measurement": "GI50", "setting": "NCI-H226", "result": "10.4 µM (inactive)"}, {"measurement": "GI50", "setting": "Hs-578T", "result": "14.2 µM (inactive)"}, {"measurement": "GI50", "setting": "SK-MEL-5", "result": "2.98 µM (inactive)"}, {"measurement": "GI50", "setting": "U-251", "result": "15.7 µM (inactive)"}, {"measurement": "GI50", "setting": "HL-60", "result": "2.2 µM (inactive)"}, {"measurement": "GI50", "setting": "Malme-3M", "result": "12.4 µM (inactive)"}, {"measurement": "GI50", "setting": "NCI-H23", "result": "2.01 µM (inactive)"}, {"measurement": "GI50", "setting": "KM12", "result": "5.15 µM (inactive)"}, {"measurement": "GI50", "setting": "TK-10", "result": "7.67 µM (inactive)"}, {"measurement": "GI50", "setting": "OVCAR-3", "result": "6.03 µM (inactive)"}]}
